Patent EP0067666A1, “Salts of antimicrobial naphthyridine and quinoline compounds and their production” (priority 1981, dated 1982)
≈ marks a conversion by molar mass, not a printed value. Marks after values point to notes of the source that are not given here.

Legend:
Type in all cases: physicochemical
[1] = Solubility of lyophilized and crystalline solids; conditions: for pH of Solution Lyo. / Conc. of CPD A mg/ml Lyo.: lyophilized solid
[2] = 10x dilution of soluble forms with standard IV solutions (pH, precipitate); conditions: for Solution 1 ppt 24 hr / Solution 3 ppt 24 hr / Solution 2 ppt 24 hr / Solution 4 ppt 24 hr: precipitate at 24 hr; for Concen. of Cpd A: undiluted solution used for the 10x dilutions; for Solution 1 ppt 4 hr / Solution 3 ppt 4 hr / Solution 2 ppt 4 hr / Solution 4 ppt 4 hr: precipitate at 4 hr
Experimental: (§1) The amount of Compound A or Compound B calculated for selected concentrations was weighed into volumetric flasks. Equimolar quantities of combining acid, amino acid, or base were added either as solutions or in dry form. Deionized water was added to bring the volume to that desired for the preselected concentrations.. All flasks were sonicated for 15 minutes, allowed to stand at room temperature for 30 minutes, then filtered through a fine frit sintered glass funnel. After the pH of the filtrate was taken, suitable dilutions were made into 0.1N HCl for ultraviolet spectrophotometric assay of concentration. Ten fold dilutions of the original filtrates were made into standard I.V. solutions.

[3] = Solubility screening procedure (concentration and pH of filtrate); conditions: for Conc. of CPD A: compound A + equimolar acid; for Conc. of CPD A / Conc. of CPD B: amino acid or base in deionized water, room temperature, filtrate, UV assay; for pH of Solution: pH of the filtrate; for Conc. of CPD B: compound B + equimolar acid
Experimental: as §1

[4] = Cpd A salt solution diluted 10x with 0.9% NaCl
[5] = Cpd A salt solution diluted 10x with 5% Dextrose
[6] = Cpd A salt solution diluted 10x with 5% Dextrose + 0.9% NaCl
[7] = Cpd A salt solution diluted 10x with Lactated Ringer's Solution
[8] = concentrated Cpd B solution (154-221 mg/ml) diluted 10x with 5% Dextrose
[9] = concentrated Cpd B solution (154-221 mg/ml) diluted 10x with 5% Dextrose + 0.9% NaCl
[10] = concentrated Cpd B solution (154-221 mg/ml) diluted 10x with Lactated Ringer's Solution
[11] = concentrated Cpd B solution (155-221 mg/ml) diluted 10x with 0.9% NaCl
[12] = concentrated Cpd B solution diluted 10x with 5% Dextrose + 0.9% NaCl
[13] = concentrated Cpd B solution diluted 10x with 5% Dextrose
[14] = concentrated Cpd B solution diluted 10x with Lactated Ringer's Solution
[15] = undiluted concentrated Cpd B solution used for the Solution 1 dilution
[16] = undiluted concentrated solution (at least 155 mg/ml) used for the Solution 1 dilution (for most salts for all four solutions)
[17] = low-concentration Cpd B solution (26.2-52 mg/ml) diluted 10x with 0.9% NaCl
[18] = separate undiluted concentrated Cpd B solution used for Solutions 2-4 only
[19] = separate undiluted concentrated solution used for Solutions 2-4 only
[20] = undiluted low-concentration Cpd B solution (26.2-52 mg/ml)
[21] = undiluted low-concentration solution (26.2-52 mg/ml), diluted with Solution 1 only

Structure (SMILES)	pH of Solution Cryst. ([1]; CPD A salt, crystalline solid)	pH of Solution Lyo. ([1]; CPD A salt)	Conc. of CPD A mg/ml Lyo. ([1]; not necessarily maximum value) [mg/mL]	Solution 1 pH dil [2, 4]	Solution 1 ppt 24 hr [2, 4]	Solution 2 pH dil [2, 5]	Solution 3 pH dil [2, 6]	Solution 2 pH dil [2, 8]	Solution 3 pH dil [2, 9]	Solution 4 pH dil [2, 10]	Solution 1 pH dil [2, 11]	Solution 1 ppt 4 hr [2, 11]	Solution 1 ppt 24 hr [2, 11]	Solution 3 ppt 24 hr [2, 12]	Solution 2 ppt 24 hr [2, 13]	Solution 4 ppt 24 hr [2, 14]	pH of Solut. [2, 15]	Concen. of Cpd B [2, 16] [µg/mL]	Conc. of CPD B [3] [µg/mL]	pH of Solution ([3]; CPD B solutions)	also measured
CCn1cc(C(=O)O)c(=O)c2cc(F)c(N3CCNCC3)cc21 [A D-Galacturonic]	4.9	4.0	256	5.36	no	5.18	5.20														solubility ([1]; crystalline solid, not necessarily maximum value, read-out: Conc. of CPD A mg/ml Cryst.): 183 mg/mL (≈ 573 mM); Solution 3 ppt 24 hr [2, 6]: no; Solution 2 ppt 24 hr [2, 5]: slight; Solution 4 pH dil [2, 7]: 5.36; Solution 4 ppt 24 hr [2, 7]: no; pH of Solut. ([2]; undiluted Cpd A solution): 5.44; Concen. of Cpd A [2]: 166000 µg/mL
CCn1cc(C(=O)O)c(=O)c2cc(F)c(N3CCNCC3)cc21 [A D-Gluconic]	4.83	5.1	255	4.4	no	4.3	4.4														Solution 3 ppt 24 hr [2, 6]: no; Solution 2 ppt 24 hr [2, 5]: no; Solution 4 pH dil [2, 7]: 4.7; Solution 4 ppt 24 hr [2, 7]: no; pH of Solut. ([2]; undiluted Cpd A solution): 4.30; Concen. of Cpd A [2]: 182000 µg/mL
CCn1cc(C(=O)O)c(=O)c2cc(F)c(N3CCNCC3)cc21 [A L-Aspartic]	4.8	4.5	256	5.05	no	4.83	4.84														Conc. of CPD A [3]: 174000 µg/mL; pH of Solution ([3]; CPD A solutions): 4.88; Solution 3 ppt 24 hr [2, 6]: no; Solution 2 ppt 24 hr [2, 5]: slight; Solution 4 pH dil [2, 7]: 5.02; Solution 4 ppt 24 hr [2, 7]: no; pH of Solut. ([2]; undiluted Cpd A solution): 4.88; Concen. of Cpd A [2]: 174000 µg/mL
CCn1cc(C(=O)O)c(=O)c2cc(F)c(N3CCNCC3)cc21 [A L-Glutamic]	5.5	5.2	254	5.18	no	5.05	5.05														Conc. of CPD A [3]: 174000 µg/mL; pH of Solution ([3]; CPD A solutions): 5.08; Solution 3 ppt 24 hr [2, 6]: no; Solution 2 ppt 24 hr [2, 5]: no; Solution 4 pH dil [2, 7]: 5.15; Solution 4 ppt 24 hr [2, 7]: no; pH of Solut. ([2]; undiluted Cpd A solution): 5.08; Concen. of Cpd A [2]: 174000 µg/mL
CCn1cc(C(=O)O)c(=O)c2cc(F)c(N3CCNCC3)cc21 [A Lactic]	5.15	4.6	256	4.3	no	4.8	4.2														Conc. of CPD A [3]: 198000 µg/mL; pH of Solution ([3]; CPD A solutions): 4.05; Solution 3 ppt 24 hr [2, 6]: no; Solution 2 ppt 24 hr [2, 5]: no; Solution 4 pH dil [2, 7]: 4.5; Solution 4 ppt 24 hr [2, 7]: no; pH of Solut. ([2]; undiluted Cpd A solution): 4.17; Concen. of Cpd A [2]: 193000 µg/mL
CCn1cc(C(=O)O)c(=O)c2cc(F)c(N3CCNCC3)nc21 [B D-Gluconic]								4.5	4.8	4.6	4.6	no	yes	yes	no	no	4.6	168000			pH of Solution Cryst. ([1]; CPD B salt, crystalline solid): 4.78; pH of Solution Lyo. ([1]; CPD B salt): 4.8; Solution 3 ppt 4 hr [2, 12]: no
CCn1cc(C(=O)O)c(=O)c2cc(F)c(N3CCNCC3)nc21 [B Hydrochloric]																			7000	1.83^c	pH of Solution Cryst. ([1]; CPD B salt, crystalline solid): 3
CCn1cc(C(=O)O)c(=O)c2cc(F)c(N3CCNCC3)nc21 [B Isethionic]								2.35	2.14	3.95	2.08	no	yes	yes	no	slight	1.01	220000	220000	1.01	pH of Solution Cryst. ([1]; CPD B salt, crystalline solid): 2.84; pH of Solution Lyo. ([1]; CPD B salt): 1.4; Solution 1 pH dil [2, 17]: 3.05; Solution 1 ppt 24 hr [2, 17]: no; pH of Solut. [2, 18]: 1.40; Concen. of Cpd B [2, 19]: 196000 µg/mL; pH of Solut. [2, 20]: 2.16; Concen. of Cpd B [2, 21]: 48800 µg/mL
CCn1cc(C(=O)O)c(=O)c2cc(F)c(N3CCNCC3)nc21 [B L-Aspartic]								4.83	4.71	4.94	4.82	no	yes	yes	no	no	4.64	165000	165000	4.64	pH of Solution Cryst. ([1]; CPD B salt, crystalline solid): 4.80; pH of Solution Lyo. ([1]; CPD B salt): 4.65; Solution 1 pH dil [2, 17]: 5.54; Solution 1 ppt 24 hr [2, 17]: no; pH of Solut. [2, 18]: 4.60; Concen. of Cpd B [2, 19]: 190000 µg/mL; pH of Solut. [2, 20]: 4.48; Concen. of Cpd B [2, 21]: 49800 µg/mL
CCn1cc(C(=O)O)c(=O)c2cc(F)c(N3CCNCC3)nc21 [B L-Cysteic]								2.9	2.8	3.9	2.8	yes	yes	yes	hazy	yes	2.78	221000	221000	2.78	Solution 3 ppt 4 hr [2, 12]: yes; Solution 2 ppt 4 hr [2, 13]: hazy; Solution 4 ppt 4 hr [2, 14]: yes; Solution 1 pH dil [2, 17]: 3.29; Solution 1 ppt 24 hr [2, 17]: no; pH of Solut. [2, 20]: 2.96; Concen. of Cpd B [2, 21]: 52000 µg/mL
CCn1cc(C(=O)O)c(=O)c2cc(F)c(N3CCNCC3)nc21 [B L-Glutamic]								5.06	4.95	5.09	5.10	no	yes	slight	slight	slight	4.98	160000	160000	4.98	pH of Solution Cryst. ([1]; CPD B salt, crystalline solid): 4.84; pH of Solution Lyo. ([1]; CPD B salt): 4.8; Solution 2 ppt 4 hr [2, 13]: slight; Solution 1 pH dil [2, 17]: 4.99; Solution 1 ppt 24 hr [2, 17]: no; pH of Solut. [2, 18]: 5.20; Concen. of Cpd B [2, 19]: 154000 µg/mL; pH of Solut. [2, 20]: 4.95; Concen. of Cpd B [2, 21]: 48200 µg/mL
CCn1cc(C(=O)O)c(=O)c2cc(F)c(N3CCNCC3)nc21 [B Lactic]								4.2	4.1	4.3	4.1	yes	yes	yes	hazy	yes	4.04	221000	217000	4.24^b	Solution 3 ppt 4 hr [2, 12]: yes; Solution 2 ppt 4 hr [2, 13]: hazy; Solution 4 ppt 4 hr [2, 14]: yes
